In patent US20120270237A9, “METHODS FOR THE IDENTIFICATION OF KINASE INTERACTING MOLECULES AND FOR THE PURIFICATION OF KINASE PROTEINS” (Cellzone AG, priority 2009, published 2012):

Assays:
Assay in all cases: Kinobeads competition binding, HL60 cell lysate
Settings in all cases: 10 μM free compound
ALK4 = target: T1, ALK4 (Homo sapiens, UniProt P36896)
T1 construct: endogenous in cells; host or cells: HL60 cells
Method: (§1) To one aliquot of cell lysate 10 μM of the free compound (FIG. 3, CZC31326) was added and allowed to bind to proteins in the lysate. Then the affinity matrix with the immobilized compound (Example 1) was added to capture proteins that were not interacting with the previously added free compound. Beads were separated from the lysate and bead bound proteins were eluted in SDS sample buffer and subsequently separated by SDS-Polyacrylamide gel electrophoresis (FIG. 4). Suitable gel bands were cut out and subjected to in-gel proteolytic digestion with trypsin. The second lysate aliquot was processed identically, however no free compound was added (DMSO solvent control). Peptides originating from samples 1 and 2 were labeled with iTRAQ reagents (iTRAQ 114 and iTRAQ 117) and the combined samples were analyzed with a nano-flow liquid chromatography system coupled online to a tandem mass spectrometer (LC-MS/MS) experiment followed by iTRAQ reporter ion quantification in the MS/MS spectra (Ross et al., 2004. Mol. Cell. Proteomics 3(12):1154-1169). Further experimental protocols can be found in WO2006/134056 and a previous publication (Bantscheff et al., 2007. Nature Biotechnology 25, 1035-1044). Sepharose-beads with the immobilized compound (100 μl beads per pull-down experiment) were equilibrated in lysis buffer and incubated with a cell lysate sample containing 50 mg of protein on an end-over-end shaker (Roto Shake Genie, Scientific Industries Inc.) for 2 hours at 4° C. Beads were collected, transferred to Mobicol-columns (MoBiTech 10055) and washed with 10 ml lysis buffer containing 0.4% NP40 detergent, followed by 5 ml lysis buffer containing 0.2% detergent. To elute bound proteins, 60 μl 2×SDS sample buffer was added to the column. The column was incubated for 30 minutes at 50° C. and the eluate was transferred to a siliconized microfuge tube by centrifugation. Proteins were then alkylated with 108 mM iodoacetamid. Proteins were then separated by SDS-Polyacrylamide electrophoresis (SDS-PAGE). The peptide extracts of samples treated with 10 μM of free compound (CZC31326) and the solvent control (0.5% DMSO) were treated with different variants of the isobaric tagging reagent (iTRAQ Reagents Multiplex Kit, part number 4352135, Applied Biosystems, Foster City, Calif., USA). The iTRAQ reagents are a set of multiplexed, amine-specific, stable isotope reagents that can label peptides on amino groups in up to four different biological samples enabling simultaneous identification and quantitation of peptides. The iTRAQ reagents were used according to instructions provided by the manufacturer. The samples were resuspended in 10 μl 50 mM TEAB solution, pH 8.5 and 10 μl ethanol were added. The iTRAQ reagent was dissolved in 120 μl ethanol and 10 μl of reagent solution were added to the sample. The labeling reaction was performed at room temperature for one hour on a horizontal shaker and stopped by adding 5 μl of 100 mM TEAB and 100 mM glycine in water. The two labeled sampled were then combined, dried in a vacuum centrifuge and resuspended in 10 μl of 0.1% formic acid in water. Relative protein quantitation was performed using peak areas of iTRAQ reporter ion signals essentially as described in an earlier publication (Bantscheff et al., 2007. Nature Biotechnology 25, 1035-1044).

CSK = target: T2, CSK (Homo sapiens, UniProt P41240)
T2 construct: endogenous in cells; host or cells: HL60 (DSMZ ACC3)
Method: as §1

DYRKIA = target: T3, DYRKIA (Homo sapiens, UniProt Q13627)
T3 construct: endogenous in cells; host or cells: HL60 (DSMZ ACC3)
Method: as §1

GAK = target: T4, GAK (Homo sapiens, UniProt O14976)
T4 sequence (O14976 1-1311): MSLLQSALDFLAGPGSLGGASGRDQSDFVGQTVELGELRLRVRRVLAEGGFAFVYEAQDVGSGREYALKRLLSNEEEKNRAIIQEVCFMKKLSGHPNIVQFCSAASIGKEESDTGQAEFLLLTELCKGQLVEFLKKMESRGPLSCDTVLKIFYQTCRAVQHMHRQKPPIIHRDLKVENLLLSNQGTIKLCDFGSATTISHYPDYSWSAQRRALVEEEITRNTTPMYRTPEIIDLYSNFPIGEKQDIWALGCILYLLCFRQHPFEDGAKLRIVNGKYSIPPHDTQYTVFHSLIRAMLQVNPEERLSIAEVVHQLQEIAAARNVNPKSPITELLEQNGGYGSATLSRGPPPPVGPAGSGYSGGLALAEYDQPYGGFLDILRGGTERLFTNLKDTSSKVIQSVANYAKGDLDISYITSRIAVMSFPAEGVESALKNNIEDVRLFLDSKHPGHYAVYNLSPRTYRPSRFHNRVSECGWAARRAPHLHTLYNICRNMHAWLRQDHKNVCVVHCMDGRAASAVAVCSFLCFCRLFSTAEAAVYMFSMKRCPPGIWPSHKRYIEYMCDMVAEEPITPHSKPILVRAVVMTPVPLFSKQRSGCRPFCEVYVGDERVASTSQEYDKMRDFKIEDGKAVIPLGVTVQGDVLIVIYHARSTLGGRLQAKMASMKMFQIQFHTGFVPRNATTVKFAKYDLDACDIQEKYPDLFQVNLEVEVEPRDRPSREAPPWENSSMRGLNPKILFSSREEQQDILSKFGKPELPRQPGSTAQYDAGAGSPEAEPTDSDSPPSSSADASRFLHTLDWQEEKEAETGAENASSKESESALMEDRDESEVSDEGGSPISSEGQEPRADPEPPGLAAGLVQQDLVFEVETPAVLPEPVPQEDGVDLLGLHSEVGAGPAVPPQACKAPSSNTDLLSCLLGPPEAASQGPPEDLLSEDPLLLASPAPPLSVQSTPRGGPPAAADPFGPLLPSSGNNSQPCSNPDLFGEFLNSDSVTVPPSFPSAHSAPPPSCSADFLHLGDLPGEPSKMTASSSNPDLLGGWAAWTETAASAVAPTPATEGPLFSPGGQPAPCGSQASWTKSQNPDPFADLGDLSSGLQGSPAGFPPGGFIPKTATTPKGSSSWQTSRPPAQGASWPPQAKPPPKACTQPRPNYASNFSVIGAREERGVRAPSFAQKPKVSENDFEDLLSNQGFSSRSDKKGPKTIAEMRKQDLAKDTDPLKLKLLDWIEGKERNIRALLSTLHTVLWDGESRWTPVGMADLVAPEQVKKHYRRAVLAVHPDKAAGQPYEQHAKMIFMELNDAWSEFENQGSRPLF
Method: as §1

MSK1 = target: T5, MSK1 (Homo sapiens, UniProt O75582)
T5 construct: endogenous in cells; host or cells: HL60
Method: as §1

PKCb = target: T6, PKCb (Homo sapiens, UniProt P05771)
T6 construct: endogenous in cells; host or cells: HL60
Method: as §1

T2 sequence (P41240 whole entry): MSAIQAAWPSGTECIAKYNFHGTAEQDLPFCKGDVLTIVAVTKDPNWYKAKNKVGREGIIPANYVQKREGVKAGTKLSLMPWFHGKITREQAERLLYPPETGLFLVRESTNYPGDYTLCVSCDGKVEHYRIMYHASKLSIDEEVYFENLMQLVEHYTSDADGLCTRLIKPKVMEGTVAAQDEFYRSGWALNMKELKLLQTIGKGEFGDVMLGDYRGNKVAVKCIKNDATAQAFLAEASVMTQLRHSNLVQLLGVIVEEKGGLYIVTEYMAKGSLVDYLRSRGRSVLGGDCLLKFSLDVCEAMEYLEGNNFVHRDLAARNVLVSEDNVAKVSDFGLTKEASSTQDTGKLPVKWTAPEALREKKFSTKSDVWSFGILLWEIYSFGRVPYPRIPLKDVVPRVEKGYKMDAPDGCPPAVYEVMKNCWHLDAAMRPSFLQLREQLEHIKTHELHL
T1 sequence (P36896 24-505): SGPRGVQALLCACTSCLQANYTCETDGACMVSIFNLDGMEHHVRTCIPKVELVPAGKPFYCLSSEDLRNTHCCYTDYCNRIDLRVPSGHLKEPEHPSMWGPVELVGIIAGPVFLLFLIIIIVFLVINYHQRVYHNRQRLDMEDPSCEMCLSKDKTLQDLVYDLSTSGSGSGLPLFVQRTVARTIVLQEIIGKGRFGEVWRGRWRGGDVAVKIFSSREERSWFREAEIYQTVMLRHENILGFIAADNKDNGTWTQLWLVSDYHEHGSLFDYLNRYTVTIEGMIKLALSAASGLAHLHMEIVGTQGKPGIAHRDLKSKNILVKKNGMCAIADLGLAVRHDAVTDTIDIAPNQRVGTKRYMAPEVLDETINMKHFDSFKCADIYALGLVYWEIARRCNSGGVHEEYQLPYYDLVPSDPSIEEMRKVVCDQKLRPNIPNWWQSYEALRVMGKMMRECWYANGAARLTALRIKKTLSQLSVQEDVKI
T6 sequence (P05771 whole entry): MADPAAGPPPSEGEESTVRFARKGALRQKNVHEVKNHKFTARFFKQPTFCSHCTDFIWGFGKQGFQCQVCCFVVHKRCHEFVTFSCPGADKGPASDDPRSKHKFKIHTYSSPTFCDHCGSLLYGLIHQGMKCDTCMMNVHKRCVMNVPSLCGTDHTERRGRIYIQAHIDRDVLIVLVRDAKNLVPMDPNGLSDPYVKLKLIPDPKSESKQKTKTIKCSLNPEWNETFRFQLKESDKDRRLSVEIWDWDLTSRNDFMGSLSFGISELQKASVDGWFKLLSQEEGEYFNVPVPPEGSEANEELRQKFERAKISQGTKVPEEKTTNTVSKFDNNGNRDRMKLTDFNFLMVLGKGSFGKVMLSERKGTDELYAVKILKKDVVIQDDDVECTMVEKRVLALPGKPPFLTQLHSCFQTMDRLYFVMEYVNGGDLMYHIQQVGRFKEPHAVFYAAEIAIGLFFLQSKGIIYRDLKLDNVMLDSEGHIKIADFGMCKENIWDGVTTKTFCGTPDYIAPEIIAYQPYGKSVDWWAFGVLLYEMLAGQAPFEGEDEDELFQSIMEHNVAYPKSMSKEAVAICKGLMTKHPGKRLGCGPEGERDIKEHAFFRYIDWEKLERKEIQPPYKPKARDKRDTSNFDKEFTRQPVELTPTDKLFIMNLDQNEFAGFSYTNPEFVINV
T5 sequence (O75582 whole entry): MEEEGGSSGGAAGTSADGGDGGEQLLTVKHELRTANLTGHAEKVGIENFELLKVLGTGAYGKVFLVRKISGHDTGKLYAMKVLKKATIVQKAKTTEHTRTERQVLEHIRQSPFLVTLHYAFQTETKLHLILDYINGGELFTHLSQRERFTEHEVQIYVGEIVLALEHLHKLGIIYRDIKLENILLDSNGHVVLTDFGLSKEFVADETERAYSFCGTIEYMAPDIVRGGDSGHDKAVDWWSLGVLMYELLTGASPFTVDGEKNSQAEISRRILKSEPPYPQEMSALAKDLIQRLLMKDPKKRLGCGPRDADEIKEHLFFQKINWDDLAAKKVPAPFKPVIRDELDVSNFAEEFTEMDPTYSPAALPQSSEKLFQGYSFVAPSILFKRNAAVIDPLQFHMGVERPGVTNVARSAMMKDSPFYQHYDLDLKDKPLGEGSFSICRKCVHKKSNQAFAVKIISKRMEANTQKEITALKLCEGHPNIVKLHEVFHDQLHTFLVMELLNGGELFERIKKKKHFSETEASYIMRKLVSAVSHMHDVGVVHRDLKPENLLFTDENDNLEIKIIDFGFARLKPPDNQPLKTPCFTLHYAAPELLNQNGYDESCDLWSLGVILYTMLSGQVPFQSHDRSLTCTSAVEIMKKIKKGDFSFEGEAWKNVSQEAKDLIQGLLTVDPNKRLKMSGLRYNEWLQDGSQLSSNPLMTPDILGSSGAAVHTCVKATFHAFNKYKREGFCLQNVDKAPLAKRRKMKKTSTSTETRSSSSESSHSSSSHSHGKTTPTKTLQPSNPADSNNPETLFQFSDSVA

CS(=O)(=O)Nc1ccccc1Nc1nc(Nc2cccc(OCCN)c2)ncc1Cl [CZC31326, N-(2-(2-(3-(2-aminoethoxy)phenylamino)-5-chloropyrimidin-4-ylamino)phenyl)methanesulfonamide]
inhibition at 10 µM (ALK4): 94.5%
Competition % (CSK): 80.3%
inhibition at 10 µM (DYRKIA): 96.1%
inhibition at 10 µM (GAK): 97.9%
inhibition at 10 µM (MSK1): 94.7%
inhibition at 10 µM (PKCb): 97.3%
